Here are results for one compound from BindingDB's records for doi:10.7270/Q22F7KVM (The Scripps Research Institute Molecular Screening Center, 2009).

pIC50: −log10 of the molar value.

As usually defined, the pIC50 is −log10 of the IC50, conventionally taken in molar units. A low value points to a large IC50.

The target in the assay is T1, Guanyl-specific ribonuclease T1 (Aspergillus oryzae (strain ATCC 42149 / RIB 40), UniProt P00651).
T1 sequence (P00651 whole entry): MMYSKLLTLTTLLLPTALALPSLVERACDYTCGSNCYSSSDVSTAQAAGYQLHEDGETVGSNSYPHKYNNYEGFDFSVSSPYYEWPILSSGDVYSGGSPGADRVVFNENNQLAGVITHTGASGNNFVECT
Description: inhibition of ribonuclease T1 activity – biochemical, fluorescence polarization, 1536-well, counter-screen for TPT1 inhibitor project, dose response (AID 2167). On the technique in general: Polarisation of emitted light reports the rotation of a fluorescent probe.

Compound `Cc1ccc2nc(N=NCc3ccc([N+](=O)[O-])o3)nc(-c3ccccc3)c2c1` showed a pIC50 of less than 4.25.
